Measurements: BindingDB's records for doi:10.1002/cbic.200800782 (Philipps-UniversitÄT Marburg, 2009)
pKi: −log10 of the molar value.

molecular target: Queuine tRNA-ribosyltransferase (Zymomonas mobilis subsp. mobilis (strain ATCC 31821 / ZM4 / CP4), UniProt P28720); assay: Enzyme Assay; conditions: pH 7.3
Description: Inhibition assay using tRNA-guanine transglycosylase (TGT).

Sequence of Queuine tRNA-ribosyltransferase (P28720 whole entry): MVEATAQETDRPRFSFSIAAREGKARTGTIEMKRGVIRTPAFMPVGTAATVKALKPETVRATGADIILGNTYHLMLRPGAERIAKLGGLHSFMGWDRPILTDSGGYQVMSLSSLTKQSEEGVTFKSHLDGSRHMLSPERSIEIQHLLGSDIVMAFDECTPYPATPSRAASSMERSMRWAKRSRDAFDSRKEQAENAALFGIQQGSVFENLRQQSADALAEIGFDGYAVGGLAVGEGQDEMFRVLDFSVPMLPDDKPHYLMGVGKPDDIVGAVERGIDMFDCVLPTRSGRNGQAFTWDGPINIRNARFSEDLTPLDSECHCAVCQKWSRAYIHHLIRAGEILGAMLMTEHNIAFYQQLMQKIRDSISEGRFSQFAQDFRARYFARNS

Structure (SMILES) | pKi
CN(C)c1ccc2c(=O)[nH]c(N)nc2c1 [Quinazolinone scaffold, 1] | 4.51
CN(Cc1ccccc1)c1ccc2c(=O)[nH]c(N)nc2c1 [Quinazolinone scaffold, 2] | 5.12
Nc1nc2cc3nc[nH]c3cc2c(=O)[nH]1 [lin-benzoguanine scaffold, 3] | 5.39
Cc1nc2cc3nc(N)[nH]c(=O)c3cc2[nH]1 [lin-benzoguanine scaffold, 4] | 5.82
Nc1nc2cc3nc(N)[nH]c3cc2c(=O)[nH]1 [lin-benzoguanine scaffold, 5] | 7.11
Nc1nc2cc3[nH]c(NCCN4CCOCC4)nc3cc2c(=O)[nH]1 [lin-benzoguanine scaffold, 9] | 8.22
Nc1nc2cc3nc(NCCc4ccccc4)[nH]c3cc2c(=O)[nH]1 [lin-benzoguanine scaffold, 10] | 8.00

These reach a higher pKi. Values come first.

pKi | Structure (SMILES)
8.24 | CNc1nc2cc3c(=O)[nH]c(N)nc3cc2[nH]1 [lin-benzoguanine scaffold, 6]
8.46 | Nc1nc2cc3nc(NCc4cccs4)[nH]c3cc2c(=O)[nH]1 [lin-benzoguanine scaffold, 7]
8.26 | Nc1nc2cc3nc(NCc4cccc5ccccc45)[nH]c3cc2c(=O)[nH]1 [lin-benzoguanine scaffold, 8]
